{"source": "patent US20050136108A1", "about": "“Stepwise delivery of topiramate over prolonged period of time” (priority 2003, published 2005)", "key": {"[1]": {"details": "in vivo; cited from earlier work"}, "[2]": {"experiment": "Intrinsic dissolution rate in water", "format": "physicochemical", "details": "water at 37° C.", "source_text": "Intrinsic dissolution is a method that utilizes a compressed disc of known area (a constant surface), effectively eliminating surface area and surface electrical charges as dissolution variables. The dissolution rate obtained by this method is termed the intrinsic dissolution rate and is characteristic of each solid compound in a given solvent under the fixed experimental conditions. The value is generally expressed as mg dissolved per minute per centimeters squared and is useful in predicting probable absorption problems due to dissolution rate. […] See USP General Chapter <1087> for more information."}, "[3]": {"experiment": "Aqueous solubility of topiramate", "format": "physicochemical", "details": "water, 37 °C, thermodynamic from solid, range stated without source", "experimental": "Aqueous solubility is determined by adding the therapeutic agent to stirred or agitated water maintained in a constant temperature bath at a temperature of 37 degrees centigrade until no more agent dissolves. The resulting solution saturated with active agent is then filtered, typically under pressure through a 0.8-micron Millipore filter, and the concentration in solution is measured by any appropriate analytical method including gravimetric, ultraviolet spectrophometry, chromatography, and the like."}, "[4]": {"details": "cited from earlier work"}}, "data": [{"smiles": "CC1(C)O[C@@H]2[C@@H](CO[C@@]3(COS(N)(=O)=O)OC(C)(C)O[C@@H]23)O1", "note": "[Topiramate, topiramate]", "values": [{"measurement": "excretion", "setting": "[1]", "value": "excreted largely through the urine"}, {"measurement": "metabolism", "setting": "[1]", "value": "not extensively metabolized"}, {"measurement": "pharmacokinetics (dose dependence of blood plasma concentration)", "setting": "[1]", "value": "linear"}, {"measurement": "dissolution rate in water", "setting": "[2]", "value": "below 0.6 mg/min/cm2"}, {"measurement": "solubility", "setting": "[3]", "value": "9.8 to 13", "unit": "mg/mL"}, {"measurement": "solubility in alkaline solutions containing sodium hydroxide or sodium phosphate", "setting": "[4]; alkaline solutions", "value": "soluble"}, {"measurement": "solubility in acetone, dimethylsulfoxide and ethanol", "setting": "[4]; organic solvents", "value": "soluble"}, {"measurement": "solubility of topiramate in water", "setting": "[4]; water", "value": "about 9.8 mg/ml"}]}]}
